Experimental data from PMC11124822, “Discovery and Anticancer Screening of Novel Oxindole-Based Derivative Bearing Pyridyl Group as Potent and Selective Dual FLT3/CDK2 Kinase Inhibitor” (Pharmaceuticals, 2024).

Columns and labels:
KM12 = test: NCI-60 antiproliferative screen (SRB); type: cell-based, human; details: Homo sapiens; 10 µM single dose, 48 h; KM12 (Colon); read-out: Growth inhibition (%)
SF-268 = test: NCI-60 antiproliferative screen (SRB); type: cell-based, human; details: Homo sapiens; 10 µM single dose, 48 h; SF-268 (CNS); read-out: Growth inhibition (%)
CAKI-1 = test: NCI-60 antiproliferative screen (SRB); type: cell-based, human; details: Homo sapiens; 10 µM single dose, 48 h; CAKI-1 (Renal); read-out: Growth inhibition (%)
NCI-H23 = test: NCI-60 antiproliferative screen (SRB); type: cell-based, human; details: Homo sapiens; 10 µM single dose, 48 h; NCI-H23 (NSCLC); read-out: Growth inhibition (%)
MCF7 = test: NCI-60 antiproliferative screen (SRB); type: cell-based, human; details: Homo sapiens; 10 µM single dose, 48 h; MCF7 (Breast); read-out: Growth inhibition (%)
ACHN = test: NCI-60 antiproliferative screen (SRB); type: cell-based, human; details: Homo sapiens; 10 µM single dose, 48 h; ACHN (Renal); read-out: Growth inhibition (%)
SK-MEL-28 = test: NCI-60 antiproliferative screen (SRB); type: cell-based, human; details: Homo sapiens; 10 µM single dose, 48 h; SK-MEL-28 (Melanoma); read-out: Growth inhibition (%)
SK-MEL-5 = test: NCI-60 antiproliferative screen (SRB); type: cell-based, human; details: Homo sapiens; 10 µM single dose, 48 h; SK-MEL-5 (Melanoma); read-out: Growth inhibition (%)
T-47D = test: NCI-60 antiproliferative screen (SRB); type: cell-based, human; details: Homo sapiens, T47D; 10 µM single dose, 48 h; T-47D (Breast); read-out: Growth inhibition (%)
OVCAR-8 = test: NCI-60 antiproliferative screen (SRB); type: cell-based, human; details: Homo sapiens; 10 µM single dose, 48 h; OVCAR-8 (Ovarian); read-out: Growth inhibition (%)
SK-MEL-2 = test: NCI-60 antiproliferative screen (SRB); type: cell-based, human; details: Homo sapiens; 10 µM single dose, 48 h; SK-MEL-2 (Melanoma); read-out: Growth inhibition (%)
OVCAR-5 = test: NCI-60 antiproliferative screen (SRB); type: cell-based, human; details: Homo sapiens; 10 µM single dose, 48 h; OVCAR-5 (Ovarian); read-out: Growth inhibition (%)
SK-OV-3 = test: NCI-60 antiproliferative screen (SRB); type: cell-based, human; details: Homo sapiens; 10 µM single dose, 48 h; SK-OV-3 (Ovarian); read-out: Growth inhibition (%)
HOP-92 = test: NCI-60 antiproliferative screen (SRB); type: cell-based, human; details: Homo sapiens; 10 µM single dose, 48 h; HOP-92 (NSCLC); read-out: Growth inhibition (%)
RPMI-8226 = test: NCI-60 antiproliferative screen (SRB); type: cell-based, human; details: Homo sapiens; 10 µM single dose, 48 h; RPMI-8226 (Leukemia); read-out: Growth inhibition (%)
TK-10 = test: NCI-60 antiproliferative screen (SRB); type: cell-based, human; details: Homo sapiens; 10 µM single dose, 48 h; TK-10 (Renal); read-out: Growth inhibition (%)
SN12C = test: NCI-60 antiproliferative screen (SRB); type: cell-based, human; details: Homo sapiens; 10 µM single dose, 48 h; SN12C (Renal); read-out: Growth inhibition (%)
CCRF-CEM = test: NCI-60 antiproliferative screen (SRB); type: cell-based, human; details: Homo sapiens; 10 µM single dose, 48 h; CCRF-CEM (Leukemia); read-out: Growth inhibition (%)
MDA-MB-231 = test: NCI-60 antiproliferative screen (SRB); type: cell-based, human; details: Homo sapiens; 10 µM single dose, 48 h; MDA-MB-231 (Breast); read-out: Growth inhibition (%)
A549/ATCC = test: NCI-60 antiproliferative screen (SRB); type: cell-based, human; details: Homo sapiens; 10 µM single dose, 48 h; A549/ATCC (NSCLC); read-out: Growth inhibition (%)
SF-539 = test: NCI-60 antiproliferative screen (SRB); type: cell-based, human; details: Homo sapiens; 10 µM single dose, 48 h; SF-539 (CNS); read-out: Growth inhibition (%)
HOP-62 = test: NCI-60 antiproliferative screen (SRB); type: cell-based, human; details: Homo sapiens; 10 µM single dose, 48 h; HOP-62 (NSCLC); read-out: Growth inhibition (%)
HCT-15 = test: NCI-60 antiproliferative screen (SRB); type: cell-based, human; details: Homo sapiens; 10 µM single dose, 48 h; HCT-15 (Colon); read-out: Growth inhibition (%)
SNB-75 = test: NCI-60 antiproliferative screen (SRB); details: Homo sapiens, SNB-75, 48 h, read-out: Growth inhibition (%)
Protocol: Anticancer activity was tested against 60 cancer cell lines (NCI-60) after 48h treatments with a single dosage of 10 μM of compounds by using sulforhodamine B assay [39] on the traditional 96-well platform. […] The human cancer cell lines of the NCI-60 panel are grown in RPMI 1640 medium supplemented with 5% FBS (fetal bovine serum) and 2 mM L-glutamine. […] For further analysis of promising compounds, five dose screens were performed against the NCI-60 panel. Drug treatments are performed in 5 doses using 10-fold or ½ log dose dilutions.

COLO 205 = test: NCI-60 antiproliferative screen (SRB); type: cell-based, human; details: Homo sapiens; 10 µM single dose, 48 h; COLO 205 (Colon); read-out: Growth inhibition (%)
HCC-2998 = test: NCI-60 antiproliferative screen (SRB); type: cell-based, human; details: Homo sapiens; 10 µM single dose, 48 h; HCC-2998 (Colon); read-out: Growth inhibition (%)
SW-620 = test: NCI-60 antiproliferative screen (SRB); type: cell-based, human; details: Homo sapiens; 10 µM single dose, 48 h; SW-620 (Colon); read-out: Growth inhibition (%)
MOLT-4 = test: NCI-60 antiproliferative screen (SRB); type: cell-based; details: Homo sapiens; 10 µM single dose, 48 h; MOLT-4 (Leukemia); read-out: Growth inhibition (%)
A498 = test: NCI-60 antiproliferative screen (SRB); type: cell-based, human; details: Homo sapiens; 10 µM single dose, 48 h; A498 (Renal); read-out: Growth inhibition (%)

O=C1Nc2cc(Cl)ccc2C1=Cc1ccc(OCc2ccncc2)cc1 (mixture of isomers) [Compound 5p, (E/Z)-6-Chloro-3-[4-(pyridin-4-ylmethoxy)benzylidene]indolin-2-one]
inhibition at 10 µM (KM12): 47.8% | inhibition at 10 µM (SF-268): 16.7% | inhibition at 10 µM (CAKI-1): 52.8% | inhibition at 10 µM (NCI-H23): 57.2% | inhibition at 10 µM (MCF7): 71.6% | inhibition at 10 µM (ACHN): 34% | inhibition at 10 µM (SK-MEL-28): -10.9% | inhibition at 10 µM (SK-MEL-5): 65% | inhibition at 10 µM (T-47D): 67.1% | inhibition at 10 µM (OVCAR-8): 61.3% | inhibition at 10 µM (SK-MEL-2): 27.6% | inhibition at 10 µM (OVCAR-5): -29.4% | inhibition at 10 µM (SK-OV-3): 15.5% | inhibition at 10 µM (HOP-92): 49.6% | inhibition at 10 µM (RPMI-8226): 74.9% | inhibition at 10 µM (TK-10): -0.51% | inhibition at 10 µM (SN12C): 34.6% | inhibition at 10 µM (CCRF-CEM): 34.4% | inhibition at 10 µM (MDA-MB-231): 32.7% | inhibition at 10 µM (A549/ATCC): 27.9% | inhibition at 10 µM (SF-539): 94.2% | inhibition at 10 µM (HOP-62): 21.4% | inhibition at 10 µM (HCT-15): 76.9% | inhibition at 10 µM (SNB-75): 14.9% | melting point: 233 to 235 °C | inhibition at 10 µM (COLO 205): 39.7% | inhibition at 10 µM (HCC-2998): 20.1% | inhibition at 10 µM (SW-620): 49.5% | inhibition at 10 µM (MOLT-4): 79% | inhibition at 10 µM (A498): -1.39%
